Test results published in ChEMBL document CHEMBL1135532, “Synthesis of potent leukotriene A(4) hydrolase inhibitors. Identification of 3-[methyl[3-[4-(phenylmethyl)phenoxy]propyl]amino]propanoic acid” (J Med Chem, 2002).

What was measured:
Mus musculus [1] = assay: Percentage inhibition of mouse ex vivo whole blood LTB-4 production (Leukotriene B-4) at a concentration of 10 mg/kg.; format: functional
[2] = target: T1, Leukotriene A-4 hydrolase (Homo sapiens, UniProt P09960); assay: Inhibition of human whole blood LTB-4 production (Leukotriene B-4).; format: functional
T1 sequence (P09960 whole entry): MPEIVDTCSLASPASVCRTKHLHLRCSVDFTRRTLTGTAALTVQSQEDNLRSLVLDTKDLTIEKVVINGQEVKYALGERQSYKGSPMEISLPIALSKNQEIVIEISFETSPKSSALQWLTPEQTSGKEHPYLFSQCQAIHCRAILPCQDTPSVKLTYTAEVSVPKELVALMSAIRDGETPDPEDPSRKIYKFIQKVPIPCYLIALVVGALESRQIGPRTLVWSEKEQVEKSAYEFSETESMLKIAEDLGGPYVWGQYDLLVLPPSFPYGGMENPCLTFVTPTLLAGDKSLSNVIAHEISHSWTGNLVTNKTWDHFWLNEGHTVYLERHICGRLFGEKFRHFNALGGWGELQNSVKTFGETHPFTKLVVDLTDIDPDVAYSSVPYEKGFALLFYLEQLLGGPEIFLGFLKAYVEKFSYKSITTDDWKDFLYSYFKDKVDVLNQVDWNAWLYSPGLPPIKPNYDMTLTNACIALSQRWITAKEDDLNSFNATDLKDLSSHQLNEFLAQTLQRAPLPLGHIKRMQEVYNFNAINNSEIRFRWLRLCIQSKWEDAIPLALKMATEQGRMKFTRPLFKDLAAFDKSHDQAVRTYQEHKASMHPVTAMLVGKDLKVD

Mus musculus [3] = species on record: Mus musculus; assay: Effective dose measured for mouse ex vivo whole blood LTB-4 production (Leukotriene B-4); format: functional
[4] = target: T1, Leukotriene A-4 hydrolase; assay: Inhibition of human leukotriene A4 hydrolase (LTA-4).
Mus musculus [5] = species on record: Mus musculus; assay: Effective dose measured for mouse ex vivo whole blood LTB-4 production; Range is from 3-10.; format: functional
Mus musculus [6] = species on record: Mus musculus; assay: Effective dose measured for mouse ex vivo whole blood LTB-4 production; Range is from 1-3.; format: functional
Mus musculus [7] = species on record: Mus musculus; assay: Effective dose measured for mouse ex vivo whole blood LTB-4 production; Range is from 1-3; format: functional

| Compound | IC50 [2] | ED90 (Mus musculus [3]) | IC50 [4] | also measured |
| --- | --- | --- | --- | --- |
| COC(=O)CCN(C)CCCOc1ccc(Cc2cccnc2)cc1 | – | – | – | inhibition in vivo at 10 mg/kg (Mus musculus [1]): 58% |
| CCOC(=O)CNCCCCCOc1ccc(Cc2ccccc2)cc1 | 0.42 µM | 10 mg/kg | – | – |
| CCOC(=O)CCCCNCCOc1ccc(Cc2ccccc2)cc1 | 2.5 µM | – | 10.7 µM | – |
| COC(=O)CCNCCOc1ccc(Cc2ccccc2)cc1 | 0.59 µM | – | – | – |
| CN(CCCOc1ccc(Cc2cccs2)cc1)CCC(=O)O | – | – | – | ED90 (Mus musculus [5]): 10 mg/kg |
| CN(CCCOc1ccc(Oc2ccc(-c3nccs3)cc2)cc1)CCC(=O)O | 0.072 µM | – | – | inhibition in vivo at 10 mg/kg (Mus musculus [1]): 87% |
| c1coc(-c2ccc(Oc3ccc(OCCN4CCCC4)cc3)cc2)n1 | – | – | – | inhibition in vivo at 10 mg/kg (Mus musculus [1]): 93% |
| CCOC(=O)CCNCCCCOc1ccc(Cc2ccccc2)cc1 | 0.076 µM | 3 mg/kg | – | – |
| CN(CCCOc1ccc(Oc2ccccc2)cc1)CCC(=O)O | 0.23 µM | 3 mg/kg | 0.019 µM | – |
| CCOC(=O)CNCCCOc1ccc(Cc2ccccc2)cc1 | 1.1 µM | – | – | inhibition in vivo at 10 mg/kg (Mus musculus [1]): 22% |
| CCOC(=O)CNCCOc1ccc(Cc2ccccc2)cc1 | > 30 µM | – | 2.5 µM | – |
| CCOC(=O)CN(C)CCCCOc1ccc(Cc2ccccc2)cc1 | 3.3 µM | – | 6.6 µM | – |
| CN(CCCOc1ccc(Cc2ccccc2)cc1)CCS(N)(=O)=O | 0.74 µM | – | 0.004 µM | inhibition in vivo at 10 mg/kg (Mus musculus [1]): 84% |
| CN(CCCOc1ccc(Oc2ccc(F)cc2)cc1)CCC(=O)O | 0.21 µM | 3 mg/kg | 0.16 µM | – |
| COC(=O)CCCN(C)CCOc1ccc(Cc2ccccc2)cc1 | 0.46 µM | ≥ 10 mg/kg | 0.45 µM | – |
| CN(CCCOc1ccc(Cc2ccccc2)cc1)CCC(=O)NS(=O)(=O)c1ccccc1 | 0.075 µM | 3 mg/kg | – | – |
| CN(CCCOc1ccc(Oc2ccc(-c3ncco3)cc2)cc1)CCC(=O)O | 0.19 µM | ≥ 10 mg/kg | – | – |
| CCOC(=O)CCN(C)CCCCOc1ccc(Cc2ccccc2)cc1 | 0.52 µM | – | > 10 µM | – |
| CN(CCCOc1ccc(Cc2ccccc2)cc1)CCS(=O)(=O)O | 5.2 µM | – | 0.22 µM | – |

| Compound | IC50 [2] | ED90 (Mus musculus [3]) | IC50 [4] | also measured |
| --- | --- | --- | --- | --- |
| O=C(O)CCNCCCOc1ccc(Cc2ccccc2)cc1 | 0.28 µM | ≥ 10 mg/kg | – | – |
| CN(CCCOc1ccc(Oc2ccc(-c3ccccc3)cc2)cc1)CCC(=O)O | 0.19 µM | 10 mg/kg | < 0.0005 µM | – |
| c1ccc(-c2ccc(OCCN3CCCC3)cc2)cc1 | – | – | – | inhibition in vivo at 10 mg/kg (Mus musculus [1]): 9% |
| CCOC(=O)CNCCCCOc1ccc(Cc2ccccc2)cc1 | 0.35 µM | ≥ 10 mg/kg | – | – |
| CN(CCCOc1ccc(Cc2ccccc2)cc1)CCC(=O)O.Cl | – | – | – | ED90 (Mus musculus [6]): 3 mg/kg |
| CCOC(=O)CCNCCCOc1ccc(Cc2ccccc2)cc1 | 0.45 µM | – | 0.084 µM | – |
| COC(=O)CCN(C)CCCOc1ccc(Cc2cccs2)cc1 | 0.095 µM | – | – | ED90 (Mus musculus [5]): 10 mg/kg |
| COC(=O)CCN(C)CCCOc1ccc(Cc2ccsc2)cc1 | 0.25 µM | – | 0.87 µM | ED90 (Mus musculus [7]): 3 mg/kg |
| O=C(O)CCNCCCCOc1ccc(Cc2ccccc2)cc1 | 0.49 µM | – | – | inhibition in vivo at 10 mg/kg (Mus musculus [1]): 70% |
| CN(CCCOc1ccc(Cc2ccccc2)cc1)CCn1cnnn1 | 0.56 µM | – | 1.65 µM | – |
| CN(CCCOc1ccc(Cc2ccccc2)cc1)CCC(=O)NS(C)(=O)=O | 0.07 µM | ≤ 1 mg/kg | – | – |
| CN(CCCCOc1ccc(Cc2ccccc2)cc1)CC(=O)O | 0.45 µM | – | 0.11 µM | – |
| CN(CCCOc1ccc(Cc2ccc(F)cc2)cc1)CCC(=O)O | 0.19 µM | ≥ 10 mg/kg | – | – |
| O=C(O)CNCCCCOc1ccc(Cc2ccccc2)cc1 | 0.23 µM | ≥ 10 mg/kg | 0.0013 µM | – |
| CCOC(=O)CCCNCCOc1ccc(Cc2ccccc2)cc1 | 2.5 µM | – | 3.7 µM | – |
| CN(CCCOc1ccc(Cc2ccsc2)cc1)CCC(=O)O | – | – | – | ED90 (Mus musculus [5]): 10 mg/kg |
| CCOC(=O)CCN(C)CCCOc1ccc(Cc2ccccc2)cc1 | 0.11 µM | – | – | ED90 (Mus musculus [5]): 10 mg/kg |
| CN(CCCOc1ccc(Cc2ccccc2)cc1)CCC(N)=O | 0.11 µM | – | 0.007 µM | inhibition in vivo at 10 mg/kg (Mus musculus [1]): 98% |
